Results reported in US10150760B2, “Compounds for use in preparing heterocyclic triazole agonists of the APJ receptor” (AMGEN INC., priority 2016, dated 2018).

Biological target: human APJ receptor (Homo sapiens (Human), UniProt P35414)
Experiment: [35S]GTPγS binding assay on membranes from CHO cells stably expressing human APJ receptor
Type: biochemical
Conditions: read-out: Activity hAPJ SPA EC50 IP
How it was run: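 Membranes from CHO cells stably expressing human APJ incubated with ligand, 0.2 nM [35S]GTPγS and WGA SPA beads in HEPES pH 7.5 with 5 mM MgCl2, 200 mM NaCl, 3 μM GDP, 90 min at RT. Nonspecific binding defined with 100 μM GTPγS; EC50 by non-linear regression.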

human APJ receptor, sequence (P35414 whole entry): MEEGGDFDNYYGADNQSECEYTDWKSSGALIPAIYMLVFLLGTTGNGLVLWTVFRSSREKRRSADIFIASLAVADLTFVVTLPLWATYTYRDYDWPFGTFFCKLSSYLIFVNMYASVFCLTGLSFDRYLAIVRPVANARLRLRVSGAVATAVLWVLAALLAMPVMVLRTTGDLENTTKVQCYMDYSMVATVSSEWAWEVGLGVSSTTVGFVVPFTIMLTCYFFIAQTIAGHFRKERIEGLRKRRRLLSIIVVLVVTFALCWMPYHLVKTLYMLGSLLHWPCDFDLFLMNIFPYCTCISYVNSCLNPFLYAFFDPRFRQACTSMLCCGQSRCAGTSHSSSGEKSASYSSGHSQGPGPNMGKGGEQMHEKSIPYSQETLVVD

## COc1cccc(OC)c1-n1c(NS(=O)(=O)[C@@H](C)[C@H](OC)c2ncc(Cl)cn2)nnc1[C@H]1CCO[C@@H]1C (single isomer, unassigned) [Example 114.0, (1R,2S)-1-(5-chloropyrimidin-2-yl)-N-(4-(2,6-dimethoxyphenyl)-5-((2R,3R)-2-methyltetrahydrofuran-3-yl)-4H-1,2,4-triazol-3-yl)-1-methoxypropane-2-sulfonamide or (1R,2S)-1-(5-chloropyrimidin-2-yl)-N-(4-(2,6-dimethoxyphenyl)-5-((2S,3S)-2-methyltetrahydrofuran-3-yl)-4H-1,2,4-triazol-3-yl)-1-methoxypropane-2-sulfonamide]
  EC50: 110 nM

## COc1cccc(OC)c1-n1c(NS(=O)(=O)[C@@H](C)[C@H](OC)c2ncc(Cl)cn2)nnc1[C@H]1CCO[C@@H]1C (single isomer, unassigned) [Example 115.0, (1R,2S)-1-(5-chloropyrimidin-2-yl)-N-(4-(2,6-dimethoxyphenyl)-5-((2R,3S)-2-methyltetrahydrofuran-3-yl)-4H-1,2,4-triazol-3-yl)-1-methoxypropane-2-sulfonamide or (1R,2S)-1-(5-chloropyrimidin-2-yl)-N-(4-(2,6-dimethoxyphenyl)-5-((2S,3R)-2-methyltetrahydrofuran-3-yl)-4H-1,2,4-triazol-3-yl)-1-methoxypropane-2-sulfonamide]
  EC50: 210 nM

## COc1cccc(OC)c1-n1c(NS(=O)(=O)[C@@H](C)[C@H](OC)c2ncc(Cl)cn2)nnc1[C@H]1CCO[C@H]1C (single isomer, unassigned) [Example 116.0, (1R,2S)-1-(5-chloropyrimidin-2-yl)-N-(4-(2,6-dimethoxyphenyl)-5-((2R,3S)-2-methyltetrahydrofuran-3-yl)-4H-1,2,4-triazol-3-yl)-1-methoxypropane-2-sulfonamide or (1R,2S)-1-(5-chloropyrimidin-2-yl)-N-(4-(2,6-dimethoxyphenyl)-5-((2S,3R)-2-methyltetrahydrofuran-3-yl)-4H-1,2,4-triazol-3-yl)-1-methoxypropane-2-sulfonamide]
  EC50: 190 nM

## COc1cccc(OC)c1-n1c(NS(=O)(=O)[C@@H](C)[C@H](C)c2ncc(Cl)cn2)nnc1[C@H]1CCO[C@@H]1C (single isomer, unassigned) [Example 117.0, (2S,3R)-3-(5-chloropyrimidin-2-yl)-N-(4-(2,6-dimethoxyphenyl)-5-((2R,3R)-2-methyltetrahydrofuran-3-yl)-4H-1,2,4-triazol-3-yl)butane-2-sulfonamide or (2S,3R)-3-(5-chloropyrimidin-2-yl)-N-(4-(2,6-dimethoxyphenyl)-5-((2S,3S)-2-methyltetrahydrofuran-3-yl)-4H-1,2,4-triazol-3-yl)butane-2-sulfonamide]
  EC50: 49 nM

## COc1cccc(OC)c1-n1c(NS(=O)(=O)[C@@H](C)[C@H](C)c2ncc(Cl)cn2)nnc1[C@@H]1CCO[C@@H]1C (single isomer, unassigned) [Example 118.0, (2S,3R)-3-(5-chloropyrimidin-2-yl)-N-(4-(2,6-dimethoxyphenyl)-5-((2R,3S)-2-methyltetrahydrofuran-3-yl)-4H-1,2,4-triazol-3-yl)butane-2-sulfonamide or (2S,3R)-3-(5-chloropyrimidin-2-yl)-N-(4-(2,6-dimethoxyphenyl)-5-((2S,3R)-2-methyltetrahydrofuran-3-yl)-4H-1,2,4-triazol-3-yl)butane-2-sulfonamide]
  EC50: 270 nM

## COc1cccc(OC)c1-n1c(NS(=O)(=O)[C@@H](C)[C@H](C)c2ncc(Cl)cn2)nnc1[C@@H]1CCO[C@@H]1C (single isomer, unassigned) [Example 119.0, (2S,3R)-3-(5-chloropyrimidin-2-yl)-N-(4-(2,6-dimethoxyphenyl)-5-((2R,3S)-2-methyltetrahydrofuran-3-yl)-4H-1,2,4-triazol-3-yl)butane-2-sulfonamide or (2S,3R)-3-(5-chloropyrimidin-2-yl)-N-(4-(2,6-dimethoxyphenyl)-5-((2S,3R)-2-methyltetrahydrofuran-3-yl)-4H-1,2,4-triazol-3-yl)butane-2-sulfonamide]
  EC50: 160 nM

## COc1cccc(OC)c1-n1c(NS(=O)(=O)[C@@H](C)[C@H](C)c2ncc(C)cn2)nnc1[C@H]1CCO[C@@H]1C (single isomer, unassigned) [Example 120.0, (2S,3R)-N-(4-(2,6-dimethoxyphenyl)-5-((2S,3S)-2-methyltetrahydrofuran-3-yl)-4H-1,2,4-triazol-3-yl)-3-(5-methylpyrimidin-2-yl)butane-2-sulfonamide or (2S,3R)-N-(4-(2,6-dimethoxyphenyl)-5-((2R,3R)-2-methyltetrahydrofuran-3-yl)-4H-1,2,4-triazol-3-yl)-3-(5-methylpyrimidin-2-yl)butane-2-sulfonamide]
  EC50: 270 nM

## COc1cccc(OC)c1-n1c(NS(=O)(=O)[C@@H](C)[C@H](C)c2ncc(C)cn2)nnc1[C@@H]1CCO[C@@H]1C (single isomer, unassigned) [Example 121.0, (2S,3R)-N-(4-(2,6-dimethoxyphenyl)-5-((2R,3S)-2-methyltetrahydrofuran-3-yl)-4H-1,2,4-triazol-3-yl)-3-(5-methylpyrimidin-2-yl)butane-2-sulfonamide or (2S,3R)-N-(4-(2,6-dimethoxyphenyl)-5-((2S,3R)-2-methyltetrahydrofuran-3-yl)-4H-1,2,4-triazol-3-yl)-3-(5-methylpyrimidin-2-yl)butane-2-sulfonamide]
  EC50: 880 nM

## COc1cccc(OC)c1-n1c(NS(=O)(=O)[C@@H](C)[C@H](C)c2ncc(C)cn2)nnc1[C@H]1CCO[C@@H]1C (single isomer, unassigned) [Example 122.0, (2S,3R)-N-(4-(2,6-dimethoxyphenyl)-5-((2S,3S)-2-methyltetrahydrofuran-3-yl)-4H-1,2,4-triazol-3-yl)-3-(5-methylpyrimidin-2-yl)butane-2-sulfonamide or (2S,3R)-N-(4-(2,6-dimethoxyphenyl)-5-((2R,3R)-2-methyltetrahydrofuran-3-yl)-4H-1,2,4-triazol-3-yl)-3-(5-methylpyrimidin-2-yl)butane-2-sulfonamide]
  EC50: 930 nM

## COc1cccc(OC)c1-n1c(NS(=O)(=O)[C@@H](C)[C@H](C)c2ncc(C)cn2)nnc1[C@@H]1CCO[C@@H]1C (single isomer, unassigned) [Example 123.0, (2S,3R)-N-(4-(2,6-dimethoxyphenyl)-5-((2R,3S)-2-methyltetrahydrofuran-3-yl)-4H-1,2,4-triazol-3-yl)-3-(5-methylpyrimidin-2-yl)butane-2-sulfonamide or (2S,3R)-N-(4-(2,6-dimethoxyphenyl)-5-((2S,3R)-2-methyltetrahydrofuran-3-yl)-4H-1,2,4-triazol-3-yl)-3-(5-methylpyrimidin-2-yl)butane-2-sulfonamide]
  EC50: 700 nM

## CO[C@H](c1ncc(Cl)cn1)[C@H](C)S(=O)(=O)Nc1nnc([C@H]2CCOC2)n1C1(C)CC1 (single isomer, unassigned) [Example 124.0, (1R,2S)-1-(5-chloropyrimidin-2-yl)-1-methoxy-N-(4-(1-methylcyclopropyl)-5-((R)-tetrahydrofuran-3-yl)-4H-1,2,4-triazol-3-yl)propane-2-sulfonamide or (1R,2S)-1-(5-chloropyrimidin-2-yl)-1-methoxy-N-(4-(1-methylcyclopropyl)-5-((S)-tetrahydrofuran-3-yl)-4H-1,2,4-triazol-3-yl)propane-2-sulfonamide]
  EC50: 440 nM
